Test results as given in paper PMC7524867, “Identification of Novel Inhibitors of a Plant Group A Protein Phosphatase Type 2C Using a Combined In Silico and Biochemical Approach” (Frontiers in Plant Science, 2020).
One block for each compound: values may come before it.

Key:
Type in all cases: biochemical
ABI1 [1] = target: T1, ABI1 (Arabidopsis thaliana, UniProt P49597); experiment: Ser/Thr phosphatase assay, single dose […]; set-up: His-ABI1
T1 sequence (P49597 1-434): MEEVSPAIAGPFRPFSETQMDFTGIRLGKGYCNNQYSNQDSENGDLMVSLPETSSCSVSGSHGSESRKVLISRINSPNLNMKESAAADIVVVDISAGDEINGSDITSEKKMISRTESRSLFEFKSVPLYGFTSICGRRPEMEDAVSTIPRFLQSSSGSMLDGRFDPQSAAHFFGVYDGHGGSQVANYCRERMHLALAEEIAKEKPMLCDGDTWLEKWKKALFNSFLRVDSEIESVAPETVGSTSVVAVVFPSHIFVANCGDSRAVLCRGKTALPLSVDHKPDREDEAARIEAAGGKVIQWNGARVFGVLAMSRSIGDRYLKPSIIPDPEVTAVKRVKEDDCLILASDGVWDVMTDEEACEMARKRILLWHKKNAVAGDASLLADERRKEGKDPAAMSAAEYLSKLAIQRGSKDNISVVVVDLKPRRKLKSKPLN

ABI1 [2] = target: T1, ABI1; experiment: Ser/Thr phosphatase assay (Promega) with phosphopeptide substrate, six-concentration IC50; set-up: recombinant His- or GST-tagged ABI1
ABI2 = target: T2, ABI2 (Arabidopsis thaliana, UniProt O04719); experiment: Ser/Thr phosphatase assay at […] compound; weaker than on ABI1
T2 construct: recombinant His- or GST-tagged ABI2
T2 sequence (O04719 1-423): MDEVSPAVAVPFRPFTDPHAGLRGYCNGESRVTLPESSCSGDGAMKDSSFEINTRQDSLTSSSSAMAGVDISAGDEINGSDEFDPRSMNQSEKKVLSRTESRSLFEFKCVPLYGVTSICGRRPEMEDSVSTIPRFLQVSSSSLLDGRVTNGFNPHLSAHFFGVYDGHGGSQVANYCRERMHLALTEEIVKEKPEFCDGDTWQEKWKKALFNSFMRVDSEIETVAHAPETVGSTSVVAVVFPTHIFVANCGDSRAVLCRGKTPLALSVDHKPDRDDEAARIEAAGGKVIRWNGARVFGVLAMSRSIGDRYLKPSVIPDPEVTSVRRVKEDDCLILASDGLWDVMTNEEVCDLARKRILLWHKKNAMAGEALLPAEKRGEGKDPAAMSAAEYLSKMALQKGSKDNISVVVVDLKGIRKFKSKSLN

ABI1 [3] = target: T1, ABI1; experiment: Ser/Thr phosphatase assay, single dose […]; set-up: recombinant His- or GST-tagged ABI1

Compound: COC(=O)c1ccccc1NC(=O)Nc1cc(NC(=O)c2ccc(F)cc2)ccc1N1CCCC1 [ZINC33009768]
Ser/Thr phosphatase assay, single dose 100 μM (ABI1 [1]): Only two molecules ZINC33009768 and ZINC09438755 were found to have significant inhibitory activity

Compound: COc1cccc(-n2cc(C(=O)Nc3cc(C)ccc3OC)c3ccccc3c2=O)c1 [ZINC09438755]
Ser/Thr phosphatase assay, single dose 100 μM (ABI1 [1]): Only two molecules ZINC33009768 and ZINC09438755 were found to have significant inhibitory activity

IC50 (ABI1 [2]): 54 ± 8 µM
Compound: NCCOc1cc(C(=O)Nc2cc(OCCN)c3ccccc3n2)nc(C(=O)Nc2cc(OCCN)c3ccccc3n2)c1 [ZINC59151964, 4-(2-aminoethoxy)-N2,N6-bis[4-(2-aminoethoxy)-2-quinolinyl]-2,6-pyridinedicarboxamide]
Ser/Thr phosphatase assay at 100 μM compound; weaker than on ABI1 (ABI2): ZINC59151964 is more efficient against ABI1 than ABI2

% inhibition at 100 μM (ABI1 [3]): 42.6
Compound: ZINC04545840
